According to patent US7977345B2, “c-MET modulators and method of use” (Exelixis, Inc., priority 2004, dated 2011):

Assays:
Format in all cases: biochemical
[1] = target: human c-Met kinase domain P948-S1343 (Homo sapiens, UniProt P08581); experiment: c-Met Luciferase-Coupled Chemiluminescent Kinase assay (LCCA); settings: 1 μM ATP, 1 μM poly-EY, 10 nM c-Met; read-out: c-Met inhibition IC50
Protocol: (§1) Kinase activity and compound inhibition are investigated using one or more of the three assay formats described below. The ATP concentrations for each assay are selected to be close to the Michaelis-Menten constant (KM) for each individual kinase. Dose-response experiments are performed at 10 different inhibitor concentrations in a 384-well plate format. The data are fitted to the following four-parameter equation: Y=Min+(Max−Min)/(1+(X/IC50)^H) where Y is the observed signal, X is the inhibitor concentration, Min is the background signal in the absence of enzyme (0% enzyme activity), Max is the signal in the absence of inhibitor (100% enzyme activity), IC50 is the inhibitor concentration at 50% enzyme inhibition and H represents the empirical Hill's slope to measure the cooperativity. Typically H is close to unity. c-Met Assay
c-Met biochemical activity was assessed using a Luciferase-Coupled Chemiluminescent Kinase assay (LCCA) format as described above. Again, kinase activity was measured as the percent ATP remaining following the kinase reaction. Remaining ATP was detected by luciferase-luciferin-coupled chemiluminescence. Specifically, the reaction was initiated by mixing test compounds, 1 μM ATP, 1 μM poly-EY and 10 nM c-Met (baculovirus expressed human c-Met kinase domain P948-S1343) in a 20 uL assay buffer (20 mM Tris-HCL pH7.5, 10 mM MgCl2, 0.02% Triton X-100, 100 mM DTT, 2 mM MnCl2). The mixture is incubated at ambient temperature for 2 hours after which 20 uL luciferase-luciferin mix is added and the chemiluminescent signal read using a Wallac Victor^2 reader. The luciferase-luciferin mix consists of 50 mM HEPES, pH 7.8, 8.5 ug/mL oxalic acid (pH 7.8), 5 (or 50) mM DTT, 0.4% Triton X-100, 0.25 mg/mL coenzyme A, 63 uM AMP, 28 ug/mL luciferin and 40,000 units of light/mL luciferase.

[2] = target: T1, human KDR kinase domain D807-V1356 (Homo sapiens, UniProt P35968); experiment: KDR Luciferase-Coupled Chemiluminescent Kinase assay (LCCA); settings: 3 μM ATP, 1.6 μM poly-EY, 5 nM KDR; read-out: KDR inhibition IC50
T1 construct: baculovirus expressed human KDR kinase domain D807-V1356; made in house
Protocol: as §1
KDR biochemical activity was assessed using a Luciferase-Coupled Chemiluminescent Kinase assay (LCCA) format. Kinase activity was measured as the percent ATP remaining following the kinase reaction. Remaining ATP was detected by luciferase-luciferin-coupled chemiluminescence. Specifically, the reaction was initiated by mixing test compounds, 3 μM ATP, 1.6 μM poly-EY and 5 nM KDR (baculovirus expressed human KDR kinase domain D807-V1356) in a 20 uL assay buffer (20 mM Tris-HCL pH7.5, 10 mM MgCl2, 0.01% Triton X-100, 1 mM DTT, 3 mM MnCl2). The mixture is incubated at ambient temperature for 4 hours after which 20 uL luciferase-luciferin mix is added and the chemiluminescent signal read using a Wallac Victor^2 reader. The luciferase-luciferin mix consists of 50 mM HEPES, pH 7.8, 8.5 ug/mL oxalic acid (pH 7.8), 5 (or 50) mM DTT, 0.4% Triton X-100, 0.25 mg/mL coenzyme A, 63 uM AMP, 28 ug/mL luciferin and 40,000 units of light/mL luciferase.

[3] = target: T2, human Flt-3 kinase domain R571-S993 (Homo sapiens, UniProt P36888); experiment: flt-3 Luciferase-Coupled Chemiluminescent Kinase assay (LCCA); settings: 5 μM ATP, 3 μM poly-EY, 5 nM Flt-3; read-out: flt-3 inhibition IC50
T2 construct: baculovirus expressed human Flt-3 kinase domain R571-S993; made in house
T2 sequence (P36888 571-993): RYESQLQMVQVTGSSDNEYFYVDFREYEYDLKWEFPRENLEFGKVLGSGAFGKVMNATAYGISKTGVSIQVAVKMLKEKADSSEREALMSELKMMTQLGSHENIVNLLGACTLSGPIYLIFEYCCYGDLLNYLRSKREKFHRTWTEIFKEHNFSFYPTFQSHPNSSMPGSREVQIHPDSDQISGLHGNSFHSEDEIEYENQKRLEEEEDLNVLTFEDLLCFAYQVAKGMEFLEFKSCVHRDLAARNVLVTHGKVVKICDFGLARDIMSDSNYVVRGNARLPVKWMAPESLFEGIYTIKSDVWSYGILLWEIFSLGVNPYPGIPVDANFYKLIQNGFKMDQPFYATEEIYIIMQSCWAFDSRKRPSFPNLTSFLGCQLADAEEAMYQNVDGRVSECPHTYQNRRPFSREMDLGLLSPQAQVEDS
Protocol: as §1
Biochemical activity for flt-3 was assessed using a Luciferase-Coupled Chemiluminescent Kinase assay (LCCA) format. Kinase activity was measured as the percent ATP remaining following the kinase reaction. Remaining ATP was detected by luciferase-luciferin-coupled chemiluminescence. Specifically, the reaction was initiated by mixing test compounds, 5 μM ATP, 3 μM poly-EY and 5 nM Flt-3 (baculovirus expressed human Flt-3 kinase domain R571-S993) in a 20 uL assay buffer (20 mM Tris-HCL pH7.5, 10 mM MgCl2, 0.01% Triton X-100, 1 mM DTT, 2 mM MnCl2). The mixture is incubated at ambient temperature for 3 hours after which 20 uL luciferase-luciferin mix is added and the chemiluminescent signal read using a Wallac Victor^2 reader. The luciferase-luciferin mix consists of 50 mM HEPES, pH 7.8, 8.5 ug/mL oxalic acid (pH 7.8), 5 (or 50) mM DTT, 0.4% Triton X-100, 0.25 mg/mL coenzyme A, 63 uM AMP, 28 ug/mL luciferin and 40,000 units of light/mL luciferase.

human c-Met kinase domain P948-S1343, sequence (P08581 1011-1367 limits assumed): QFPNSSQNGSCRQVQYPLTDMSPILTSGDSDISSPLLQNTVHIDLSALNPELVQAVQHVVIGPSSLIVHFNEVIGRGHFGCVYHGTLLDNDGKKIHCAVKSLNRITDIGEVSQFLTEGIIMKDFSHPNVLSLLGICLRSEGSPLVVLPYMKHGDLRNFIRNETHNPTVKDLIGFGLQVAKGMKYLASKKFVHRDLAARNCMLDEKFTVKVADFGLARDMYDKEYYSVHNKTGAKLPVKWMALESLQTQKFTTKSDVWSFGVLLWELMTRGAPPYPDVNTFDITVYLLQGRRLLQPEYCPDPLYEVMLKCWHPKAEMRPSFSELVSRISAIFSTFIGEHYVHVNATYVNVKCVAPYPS
T1 sequence (P35968 807-1356): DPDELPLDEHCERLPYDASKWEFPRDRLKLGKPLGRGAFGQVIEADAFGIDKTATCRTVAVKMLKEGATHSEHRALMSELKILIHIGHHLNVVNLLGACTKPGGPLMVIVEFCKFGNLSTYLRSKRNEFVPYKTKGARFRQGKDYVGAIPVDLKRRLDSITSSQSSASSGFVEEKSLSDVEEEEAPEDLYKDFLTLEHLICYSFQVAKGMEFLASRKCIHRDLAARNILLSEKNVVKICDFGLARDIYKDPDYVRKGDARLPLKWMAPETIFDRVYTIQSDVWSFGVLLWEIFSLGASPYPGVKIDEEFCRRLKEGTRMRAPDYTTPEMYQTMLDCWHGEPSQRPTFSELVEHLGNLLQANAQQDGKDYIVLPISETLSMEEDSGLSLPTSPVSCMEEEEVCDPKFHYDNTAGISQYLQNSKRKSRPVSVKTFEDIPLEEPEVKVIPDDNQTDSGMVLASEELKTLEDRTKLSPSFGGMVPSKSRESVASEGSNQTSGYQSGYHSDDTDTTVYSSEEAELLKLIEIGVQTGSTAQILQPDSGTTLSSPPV

SMILES | IC50 [1] [nM] | IC50 [2] [nM] | IC50 [3] [nM]
O=C(Cc1ccccc1)NC(=S)Nc1ccc(Oc2ncnc3[nH]cnc23)cc1 [Entry 11, 2-phenyl-N-({[4-(9H-purin-6-yloxy)phenyl]amino}carbonothioyl)acetamide] | > 500 | > 500 | 
O=C(Nc1ccc(F)cc1)C1(C(=O)Nc2ccc(Oc3ncnc4c3ncn4C3CCCCO3)cc2)CC1 (stereo not shown) [Entry 8, N-(4-fluorophenyl)-N′-(4-{[9-(tetrahydro-2H-pyran-2-yl)-9H-purin-6-yl]oxy}phenyl)cyclopropane-1,1-dicarboxamide] | > 500 | > 500 | 
O=C(Cc1ccccc1)NC(=S)Nc1ccc(Oc2ncnc3c2ncn3C2CCCCO2)cc1 (stereo not shown) [Entry 9, 2-phenyl-N-{[(4-{[9-(tetrahydro-2H-pyran-2-yl)-9H-purin-6-yl]oxy}phenyl)amino]carbonothioyl}acetamide] | > 500 | > 500 | 
O=C(Cc1ccccc1)NC(=S)Nc1ccc(Oc2ncnc3c2cnn3C2CCCCO2)cc1 (stereo not shown) [Entry 5, 2-phenyl-N-{[(4-{[1-(tetrahydro-2H-pyran-2-yl)-1H-pyrazolo[3,4-d]pyrimidin-4-yl]oxy}phenyl)amino]carbonothioyl}acetamide] | > 500 | > 500 | 
O=C(Nc1ccc(F)cc1)C1(C(=O)Nc2ccc(Oc3ncnc4[nH]cnc34)cc2)CC1 [Entry 10, N-(4-fluorophenyl)-N′-[4-(9H-purin-6-yloxy)phenyl]cyclopropane-1,1-dicarboxamide] | > 500 | > 500 | 
O=C(Cc1ccccc1)NC(=S)Nc1ccc(Oc2ncnc3[nH]ncc23)cc1 [Entry 7, 2-phenyl-N-({[4-(1H-pyrazolo[3,4-d]pyrimidin-4-yloxy)phenyl]amino}carbonothioyl)acetamide] | > 500 | > 500 | 
O=C(Nc1ccc(F)cc1)C1(C(=O)Nc2ccc(Oc3ncnc4c3cnn4C3CCCCO3)cc2)CC1 (stereo not shown) [Entry 4, N-(4-fluorophenyl)-N′-(4-{[1-(tetrahydro-2H-pyran-2-yl)-1H-pyrazolo[3,4-d]pyrimidin-4-yl]oxy}phenyl)cyclopropane-1,1-dicarboxamide] | > 500 | > 500 | 

Further lines, results first:

IC50 [1] [nM] | IC50 [2] [nM] | IC50 [3] [nM] | SMILES
> 500 | 50 to 500 |  | O=C(Nc1ccc(F)cc1)C1(C(=O)Nc2ccc(Oc3ncnc4[nH]ncc34)cc2)CC1 [Entry 6, N-(4-fluorophenyl)-N′-[4-(1H-pyrazolo[3,4-d]pyrimidin-4-yloxy)phenyl]cyclopropane-1,1-dicarboxamide]
< 50 | < 50 | 50 to 500 | O=C(Nc1ccc(F)cc1)C1(C(=O)Nc2ccc(Oc3ncnc4[nH]ccc34)c(F)c2)CC1 [Entry 2, N-(4-fluorophenyl)-N′-[3-fluoro-4-(7H-pyrrolo[2,3-d]pyrimidin-4-yloxy)phenyl]cyclopropane-1,1-dicarboxamide]
< 50 | < 50 | < 50 | O=C(NCCN1CCOCC1)c1cc2c(Oc3ccc(NC(=O)C4(C(=O)Nc5ccc(F)cc5)CC4)cc3F)ncnc2[nH]1 [Entry 12, N-{3-fluoro-4-[(6-{[(2-morpholin-4-ylethyl)amino]carbonyl}-7H-pyrrolo[2,3-d]pyrimidin-4-yl)oxy]phenyl}-N′-(4-fluorophenyl)cyclopropane-1,1-dicarboxamide]
< 50 | 50 to 500 | > 500 | O=C(Cc1ccccc1)NC(=S)Nc1ccc(Oc2ncnc3[nH]ccc23)c(F)c1 [Entry 3, N-({[3-fluoro-4-(7H-pyrrolo[2,3-d]pyrimidin-4-yloxy)phenyl]amino}carbonothioyl)-2-phenylacetamide]
50 to 500 | 50 to 500 | < 50 | O=C(CC(=O)Nc1ccc(Oc2ncnc3[nH]ccc23)c(F)c1)Nc1ccc(F)cc1 [Entry 1, N-(4-fluorophenyl)-N′-[3-fluoro-4-(7H-pyrrolo[2,3-d]pyrimidin-4-yloxy)phenyl]propanediamide]
